From patent US11220671B2, “Methods for the maturation of cardiomyocytes on amniotic fluid cell-derived ECM, cellular constructs, and uses for cardiotoxicity and proarrhythmic screening of drug compounds” (STEMBIOSYS, INC., priority 2019, dated 2022)
Read-outs that look alike come from different tables or passages of the source.

Legend:
[1] = test system: mature cardiomyocytes (hiPSC-CMs) on AFC-ECM
Procedure: The cardiotoxicity and/or proarrhythmia testing can be conducted using any type of equipment suitable for measuring such activity. In some embodiments, the cellular constructs of monolayers of mature cardiomyocytes on AFC-ECM are prepared as described supra. After the maturation process (generally 7 days or less), the electrophysiology of each well is observed using a plate reader. A suitable voltage sensitive or calcium sensitive fluorescent dye is loaded into each well. Non-limiting voltage sensitive dyes include FluoVolt™ dye commercially available from ThermoFisher. In some embodiments, the plate reader can rely on a suitable high spatiotemporal CCD camera combined with suitable lighting, such as light emitting diodes (LEDs), of the appropriate wavelength to excite each dye. Such high spatiotemporal CCD cameras are commercially available from SciMeasure. In some embodiments, the camera image acquisition rate is greater than or equal to 150 frames per second. In some embodiments, the camera and lens combination are designed such that it allows visualization of all the wells of the multi-well plate simultaneously with sufficient resolution to observe action potential and calcium wave propagation. Each plate is centered under the camera system, lighting is switched on and camera acquisition is initiated and electrophysiological activity is recorded. Experiments are performed at about 37° C. After baseline readings are made, the drug to be tested is added to the wells and the effects are recorded. Spontaneous activity is recorded for a sufficient period of time to obtain images, e.g. at least 10 seconds. The images can be stored on a computer. Images are analyzed and action potential duration, conduction velocity, beat rate and activation patterns can be quantified using image analysis software. Visualization of electrical wave patterns is important to determine a drug compound's effect to cause potentially fatal arrhythmias, e.g., Torsades de Pointes (TdP). Thus, in addition to providing information on a compound's effect on spontaneous action potential duration, the methods disclosed herein can also provide information on impulse conduction velocity and activation pattern depending on the type of equipment used.
After the 7-day maturation process the electrophysiology of each well was observed using a plate reader using the following high throughput screen method. FluoVolt™ dye in Hanks Balanced Salt Solution was loaded into each well. A high spatiotemporal CCD camera (SciMeasure DaVinci camera) combined with light emitting diodes (LEDs) as shown in the schematic in FIG. 22. The camera and lens combination were designed such that it allowed visualization of all the wells of the 96-well plate simultaneously with sufficient resolution to observe action potential and calcium wave propagation. Each plate was centered under the camera system, lighting was switched on and camera acquisition was initiated and electrophysiological activity was recorded. Experiments were performed at about 37° C. Spontaneous activity was recorded for at least 10 seconds and images were stored on a computer. […] Images were analyzed and action potential duration, conduction velocity, beat rate and activation patterns were quantified using image analysis software.
The drugs were selected from the CiPA Initiative's list of compounds for validation and testing of CiPA and are classified as high risk, intermediate risk or low risk for causing fatal arrhythmias (TdPs) in patients.

[2] = CiPA list: high, intermediate or low risk for causing fatal arrhythmias (TdPs) in patients; cited from earlier work
[3] = mature cardiomyocytes on AFC-ECM, 96-well plates, plate reader, any arrhythmia detected over Dose 1-4
[4] = mature cardiomyocytes on AFC-ECM, 96-well plates, at 10 times the effective therapeutic plasma concentration

For CCOC(=O)N1CCC(=C2c3ccc(Cl)cc3CCc3cccnc32)CC1 [Loratadine], the “Arrhythmia Detected?” value [1, 3] was “No” and the “APD90 Prolongation? @10X ETPC” value [1, 4] was “No”.
With CC/C(=C(\c1ccccc1)c1ccc(OCCN(C)C)cc1)c1ccccc1 [Tamoxifen] the “APD90 Prolongation? @10X ETPC” value [1] was “No” and the “Arrhythmia Detected?” value [1] was “No”.
For COc1cc(N)c(Cl)cc1C(=O)NC1CCN(CCCOc2ccc(F)cc2)CC1OC (stereo not drawn) [Cisapride], the “APD90 Prolongation? @10X ETPC” value [1] is listed as “No”, the “Arrhythmia Detected?” value [1] is listed as “Yes” and the “Risk Category” value [2] is listed as “Intermediate”.
In the case of COc1cc2c(Nc3ccc(Br)cc3F)ncnc2cc1OCC1CCN(C)CC1 [Vandetanib], the “APD90 Prolongation? @10X ETPC” value [1] is given as “Yes”, the “Arrhythmia Detected?” value [1] is given as “Yes, EAD” and the “Risk Category” value [2] is given as “High”.
For CC(C)COCC(CN(Cc1ccccc1)c1ccccc1)N1CCCC1 (stereo not drawn) [Bepridil], the “APD90 Prolongation? @10X ETPC” value [1] is listed as “Yes”, the “Arrhythmia Detected?” value [1] is listed as “Yes, Q” and the “Risk Category” value [2] is listed as “High”.
With CN1CCN(C2=Nc3cc(Cl)ccc3Nc3ccccc32)CC1 [Clozapine] the “APD90 Prolongation? @10X ETPC” value [1] was “Yes” and the “Arrhythmia Detected?” value [1] was “No”.
For CC(C)N(CCC(C(N)=O)(c1ccccc1)c1ccccn1)C(C)C (stereo not drawn) [Disopyramide], the “APD90 Prolongation? @10X ETPC” value [1] was “Yes” and the “Arrhythmia Detected?” value [1] was “Yes, EAD, TA”.
For Cc1nccn1CC1CCc2c(c3ccccc3n2C)C1=O (stereo not drawn) [Ondansetron], the “APD90 Prolongation? @10X ETPC” value [1] is listed as “Yes”, the “Arrhythmia Detected?” value [1] is listed as “Yes, EAD” and the “Risk Category” value [2] is listed as “Intermediate”.
With Cc1nc2n(c(=O)c1CCN1CCC(c3noc4cc(F)ccc34)CC1)CCCC2 [Risperidone] the “Arrhythmia Detected?” value [1] was “No”.
For COCCc1ccc(OCC(O)CNC(C)C)cc1 (stereo not drawn) [Metoprolol], the “APD90 Prolongation? @10X ETPC” value [1] was “No” and the “Arrhythmia Detected?” value [1] was “Yes,”.
For CC(C)NCC(O)c1ccc(NS(C)(=O)=O)cc1 (stereo not drawn) [D, I Sotalol], the “Arrhythmia Detected?” value [1, 3] is listed as “Yes, EAD”, the “APD90 Prolongation? @10X ETPC” value [1, 4] is listed as “Yes” and the “Risk Category” value [2] is listed as “High”.
For COc1ccc([C@@H]2Sc3ccccc3N(CCN(C)C)C(=O)[C@@H]2OC(C)=O)cc1 [Diltiazem], the “APD90 Prolongation? @10X ETPC” value [1] was “No, shortening” and the “Arrhythmia Detected?” value [1] was “No”.
In the case of O=c1[nH]c2ccccc2n1C1CCN(CCCC(c2ccc(F)cc2)c2ccc(F)cc2)CC1 [Pimozide], the “APD90 Prolongation? @10X ETPC” value [1] was “No” and the “Arrhythmia Detected?” value [1] was “Yes”.
For CCOC(=O)C1=C(C)NC(C)=C(C(=O)OC)C1c1cccc([N+](=O)[O-])c1 (stereo not drawn) [Nitrendipine], the “APD90 Prolongation? @10X ETPC” value [1] was “No,” and the “Arrhythmia Detected?” value [1] was “No”.
For COc1ccccc1OCC(O)CN1CCN(CC(=O)Nc2c(C)cccc2C)CC1 (stereo not drawn) [Ranolazine], the “APD90 Prolongation? @10X ETPC” value [1] is given as “No”, the “Arrhythmia Detected?” value [1] is given as “No” and the “Risk Category” value [2] is given as “Low”.
In the case of O=c1[nH]c2ccccc2n1CCCN1CCC(n2c(=O)[nH]c3cc(Cl)ccc32)CC1 [Domperidone], the “APD90 Prolongation? @10X ETPC” value [1] was “Yes” and the “Arrhythmia Detected?” value [1] was “Yes, TA”.
With C=C[C@H]1C[N@@]2CC[C@H]1C[C@@H]2[C@@H](O)c1ccnc2ccc(OC)cc12 [Quinidine] the “APD90 Prolongation? @10X ETPC” value [1] was “Yes” and the “Arrhythmia Detected?” value [1, 3] was “Yes, EAD”.
With COc1ccc(CCN2CCC(Nc3nc4ccccc4n3Cc3ccc(F)cc3)CC2)cc1 [Astemizole] the “APD90 Prolongation? @10X ETPC” value [1] was “Yes” and the “Arrhythmia Detected?” value [1] was “Yes”.
In the case of Cc1cccc(C)c1OCC(C)N (stereo not drawn) [Mexiletine], the “APD90 Prolongation? @10X ETPC” value [1] was “No” and the “Arrhythmia Detected?” value [1] was “No”.
In the case of CC(C)(C)c1ccc(C(O)CCCN2CCC(C(O)(c3ccccc3)c3ccccc3)CC2)cc1 (stereo not drawn) [Terfenadine], the “APD90 Prolongation? @10X ETPC” value [1] was “Yes” and the “Arrhythmia Detected?” value [1] was “No”.
In the case of CN(CCOc1ccc(NS(C)(=O)=O)cc1)CCc1ccc(NS(C)(=O)=O)cc1 [Dofetilide], the “APD90 Prolongation? @10X ETPC” value [1] was “Yes” and the “Arrhythmia Detected?” value [1] was “Yes, EAD”.
With COc1ccc(CCN(C)CCCC(C#N)(c2ccc(OC)c(OC)c2)C(C)C)cc1OC (stereo not drawn) [Verapamil] the “APD90 Prolongation? @10X ETPC” value [1] was “No, Shortening” and the “Arrhythmia Detected?” value [1] was “No”.
For CCCCCCCN(CC)CCCC(O)c1ccc(NS(C)(=O)=O)cc1 (stereo not drawn) [Ibutilide], the “APD90 Prolongation? @10X ETPC” value [1] is given as “YeS”, the “Arrhythmia Detected?” value [1] is given as “Yes, EAD” and the “Risk Category” value [2] is given as “High”.
With O=C(CCCN1CC=C(n2c(=O)[nH]c3ccccc32)CC1)c1ccc(F)cc1 [Droperidol] the “APD90 Prolongation? @10X ETPC” value [1] was “Yes” and the “Arrhythmia Detected?” value [1] was “Yes, EAD”.
For CN1CCN(CCCCN2C(=O)CN(/N=C/c3ccc(-c4ccc(Cl)cc4)o3)C2=O)CC1 [Azimilide], the “APD90 Prolongation? @10X ETPC” value [1] is given as “Yes”, the “Arrhythmia Detected?” value [1] is given as “Yes, EAD” and the “Risk Category” value [2] is given as “High”.
